In brackets after ≈: the same amount, converted by molar mass.
Columns and labels:
Assay type in all cases: functional
[1] = system: Klebsiella pneumoniae; experiment: Antibacterial activity against Klebsiella pneumoniae 46101 after 24 hrs by agar dilution method
[2] = system: Staphylococcus epidermidis; experiment: Antibacterial activity against Staphylococcus epidermidis 26069 after 24 hrs by agar dilution method
[3] = system: Salmonella; experiment: Antibacterial activity against […] 48107 after 24 hrs by agar dilution method
[4] = system: Staphylococcus aureus; experiment: Antibacterial activity against Staphylococcus aureus 26003 after 24 hrs by agar dilution method
[5] = system: Streptococcus pneumoniae; experiment: Antibacterial activity against Streptococcus pneumoniae 31002 after 24 hrs by agar dilution method
[6] = system: Shigella boydii; experiment: Antibacterial activity against Shigella boydii 51313 after 24 hrs by agar dilution method

| SMILES | MIC [1] [µg/mL] | MIC [2] [µg/mL] | MIC [3] [µg/mL] | MIC [4] [µg/mL] | MIC [5] [µg/mL] | MIC [6] [µg/mL] |
| --- | --- | --- | --- | --- | --- | --- |
| C[C@H]1COc2c(C3(N)CC3)c(F)cc3c(=O)c(C(=O)O)cn1c23 [PAZUFLOXACIN] | 0.049 (≈ 0.154 µM) | 0.39 (≈ 1.23 µM) | 0.049 (≈ 0.154 µM) | 0.195 (≈ 0.613 µM) | 0.049 (≈ 0.154 µM) | 0.049 (≈ 0.154 µM) |
| CC1COc2c(Cn3ccnc3)c(F)cc3c(=O)c(C(=O)O)cn1c23 (stereo unspecified) | 0.195 (≈ 0.568 µM) | 3.13 (≈ 9.12 µM) | 0.39 (≈ 1.14 µM) | 3.13 (≈ 9.12 µM) | 0.78 (≈ 2.27 µM) | 0.78 (≈ 2.27 µM) |
| C[C@H]1COc2c(CN(C)c3ccc(F)cc3)c(F)cc3c(=O)c(C(=O)O)cn1c23 | 1.56 (≈ 3.9 µM) | 3.13 (≈ 7.82 µM) | 1.56 (≈ 3.9 µM) | 3.13 (≈ 7.82 µM) | 0.39 (≈ 0.974 µM) | 1.56 (≈ 3.9 µM) |
| CNCc1c(F)cc2c(=O)c(C(=O)O)cn3c2c1OCC3C (stereo unspecified) | 0.098 (≈ 0.32 µM) | > 6.25 | ≤ 0.049 | 3.13 (≈ 10.2 µM) | 3.13 (≈ 10.2 µM) | 0.098 (≈ 0.32 µM) |
| CC1COc2c(CN3CCCC3)c(F)cc3c(=O)c(C(=O)O)cn1c23 (stereo unspecified) | 0.195 (≈ 0.563 µM) | > 6.25 | 0.39 (≈ 1.13 µM) | > 6.25 | 3.13 (≈ 9.04 µM) | 0.39 (≈ 1.13 µM) |
| C[C@H]1COc2c(CN3CCNCC3)c(F)cc3c(=O)c(C(=O)O)cn1c23 | 3.13 (≈ 8.66 µM) | > 6.25 | > 6.25 | > 6.25 | > 6.25 | > 6.25 |
| CN[C@H](CC(C)C)C(=O)N[C@H]1C(=O)N[C@@H](CC(N)=O)C(=O)N[C@H]2C(=O)N[C@H]3C(=O)N[C@H](C(=O)N[C@H](C(=O)O)c4cc(O)cc(O)c4-c4cc3ccc4O)[C@H](O)c3ccc(c(Cl)c3)Oc3cc2cc(c3O[C@@H]2O[C@H](CO)[C@@H](O)[C@H](O)[C@H]2O[C@H]2C[C@](C)(N)[C@H](O)[C@H](C)O2)Oc2ccc(cc2Cl)[C@H]1O [VANCOMYCIN] | > 6.25 | 0.78 (≈ 0.538 µM) | > 6.25 | 0.39 (≈ 0.269 µM) | 0.098 (≈ 0.0676 µM) | > 6.25 |
| CC1COc2c(CNC3CC3)c(F)cc3c(=O)c(C(=O)O)cn1c23 (stereo unspecified) | ≤ 0.049 | 3.13 (≈ 9.42 µM) | ≤ 0.049 | 3.13 (≈ 9.42 µM) | 0.39 (≈ 1.17 µM) | ≤ 0.049 |
| Cc1cc(C)nc(NCc2c(F)cc3c(=O)c(C(=O)O)cn4c3c2OC[C@@H]4C)c1 | 0.39 (≈ 0.981 µM) | 0.78 (≈ 1.96 µM) | 0.78 (≈ 1.96 µM) | 0.78 (≈ 1.96 µM) | 0.195 (≈ 0.491 µM) | 0.195 (≈ 0.491 µM) |

The next lines start with the values.

| MIC [1] [µg/mL] | MIC [2] [µg/mL] | MIC [3] [µg/mL] | MIC [4] [µg/mL] | MIC [5] [µg/mL] | MIC [6] [µg/mL] | SMILES |
| --- | --- | --- | --- | --- | --- | --- |
| > 6.25 | 0.78 (≈ 1.94 µM) | 1.56 (≈ 3.87 µM) | 0.195 (≈ 0.484 µM) | ≤ 0.049 | 1.56 (≈ 3.87 µM) | CC1COc2c(CNc3ccc(Cl)cc3)c(F)cc3c(=O)c(C(=O)O)cn1c23 (stereo unspecified) |
| 0.78 (≈ 1.95 µM) | 1.56 (≈ 3.91 µM) | 0.78 (≈ 1.95 µM) | 0.39 (≈ 0.976 µM) | 0.098 (≈ 0.245 µM) | 0.39 (≈ 0.976 µM) | Cc1cc(C)nc(NCc2c(F)cc3c(=O)c(C(=O)O)cn(C4CC4)c3c2F)c1 |
| 0.195 (≈ 0.658 µM) | > 6.25 | 0.39 (≈ 1.32 µM) | > 6.25 | 3.13 (≈ 10.6 µM) | 0.39 (≈ 1.32 µM) | CCn1cc(C(=O)O)c(=O)c2cc(F)c(CNC)c(F)c21 |
| 0.78 (≈ 2.11 µM) | 1.56 (≈ 4.21 µM) | 0.39 (≈ 1.05 µM) | 0.78 (≈ 2.11 µM) | 0.049 (≈ 0.132 µM) | 0.39 (≈ 1.05 µM) | O=C(O)c1cn(C2CC2)c2c(F)c(CNc3ccccc3)c(F)cc2c1=O |
| 0.39 (≈ 1.16 µM) | > 6.25 | 0.098 (≈ 0.291 µM) | > 6.25 | 3.13 (≈ 9.31 µM) | 0.195 (≈ 0.58 µM) | CCCNCc1c(F)cc2c(=O)c(C(=O)O)cn(C3CC3)c2c1F |
| ≤ 0.049 | 6.25 (≈ 18.7 µM) | 0.098 (≈ 0.293 µM) | 3.13 (≈ 9.36 µM) | 0.195 (≈ 0.583 µM) | 0.098 (≈ 0.293 µM) | O=C(O)c1cn(C2CC2)c2c(F)c(CNC3CC3)c(F)cc2c1=O |
| 6.25 (≈ 15.7 µM) | 6.25 (≈ 15.7 µM) | 3.13 (≈ 7.86 µM) | 3.13 (≈ 7.86 µM) | 3.13 (≈ 7.86 µM) | 3.13 (≈ 7.86 µM) | CCN(Cc1c(F)cc2c(=O)c(C(=O)O)cn(C3CC3)c2c1F)c1ccccc1 |
| 0.195 (≈ 0.484 µM) | 0.098 (≈ 0.243 µM) | 0.098 (≈ 0.243 µM) | 0.098 (≈ 0.243 µM) | ≤ 0.049 | 0.195 (≈ 0.484 µM) | C[C@H]1COc2c(CNc3ccc(Cl)cc3)c(F)cc3c(=O)c(C(=O)O)cn1c23 |
| 0.78 (≈ 2.01 µM) | 1.56 (≈ 4.02 µM) | 0.39 (≈ 1 µM) | 0.78 (≈ 2.01 µM) | 0.049 (≈ 0.126 µM) | 0.195 (≈ 0.502 µM) | O=C(O)c1cn(C2CC2)c2c(F)c(CNc3ccc(F)cc3)c(F)cc2c1=O |
| 1.56 (≈ 3.85 µM) | 1.56 (≈ 3.85 µM) | 1.56 (≈ 3.85 µM) | 0.39 (≈ 0.963 µM) | ≤ 0.049 | 1.56 (≈ 3.85 µM) | O=C(O)c1cn(C2CC2)c2c(F)c(CNc3ccc(Cl)cc3)c(F)cc2c1=O |
| 3.13 (≈ 8.19 µM) | 3.13 (≈ 8.19 µM) | 1.56 (≈ 4.08 µM) | 0.78 (≈ 2.04 µM) | 0.098 (≈ 0.256 µM) | 0.78 (≈ 2.04 µM) | Cc1ccc(NCc2c(F)cc3c(=O)c(C(=O)O)cn4c3c2OC[C@@H]4C)cc1 |
| 1.56 (≈ 3.69 µM) | 1.56 (≈ 3.69 µM) | 0.78 (≈ 1.84 µM) | 0.39 (≈ 0.922 µM) | 0.39 (≈ 0.922 µM) | 1.56 (≈ 3.69 µM) | O=C(O)c1cn(C2CC2)c2c(F)c(CNc3ccc(F)c(Cl)c3)c(F)cc2c1=O |

Reference: ChEMBL document CHEMBL1137480, “Synthesis and structure-activity relationship of 7-(substituted)-aminomethyl-4-quinolone-3-carboxylic acid derivatives” (2007)
